Literature values, collected in US20070037740A1, “Combination therapy with glatiramer acetate and alphacalcidol for the treatment of multiple sclerosis” (priority 2003, published 2007).

Key:
[1] = tested on: murine experimental autoimmune encephalomyelitis (EAE)
[2] = daily subcutaneous injections, 20 mg/injection

Compound | progression of murine EAE ([1]; administered after the induction of EAE) | development of murine EAE ([1]; mouse, in vivo) | appearance of "black holes" (multiple sclerosis; [2]) | appearance of new lesions by magnetic resonance imaging (MRI) (multiple sclerosis; [2]) | progression of disability (multiple sclerosis; [2]) | relapse rates (multiple sclerosis; [2]) | effective in treating multiple sclerosis (MS) (multiple sclerosis; in vivo)
C=C1/C(=C\C=C2/CCC[C@]3(C)[C@@H]([C@H](C)CCCC(C)(C)O)CC[C@@H]23)C[C@@H](O)C[C@@H]1O [1α,25-dihydroxycholecalciferol] | prevents the progression | prevents the development |  |  |  |  | 
L-glutamic acid polymer with L-alanine, L-lysine and L-tyrosine, acetate (salt) [glatiramer acetate] |  |  | reduce | reduce | reduce | reduce | effective
